In US4126616A, “N-propylnorapomorphine diesters” (Hinshaw; William B., priority 1976, dated 1978):
Where a name gives a salt, the structure may show the parent alone. Read-outs that look alike come from different tables or passages of the source.

System: caudate lesioned mouse
Test: caudate lesioned mouse test (anti-parkinson activity)
Assay type: in vivo
Conditions: for ED50: caudate lesioned mouse; for Molar Potency Ratio Claimed/Ref. Ester: claimed N-propyl ester vs corresponding N-methyl reference ester; for responders at 416 µmol/kg: dose 0.416 m. mole/kg
Summary of the method: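 Mice with unilateral caudate lesions, recovered ≥14 days, kept only if circling toward lesion in all three periods after apomorphine 1.7 mg/kg i.p. Test drugs given in 1% gum tragacanth; doses as mg/kg free base.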

[1] = Mus musculus, 0.5 h, read-out: No. Mice Affected/No. Mice Tested, 1/2 h
[2] = Mus musculus, 1 h, read-out: No. Mice Affected/No. Mice Tested, 1 h
[3] = Mus musculus, 2 h, read-out: No. Mice Affected/No. Mice Tested, 2 h
[4] = Mus musculus, 4 h, read-out: No. Mice Affected/No. Mice Tested, 4 h
[5] = Mus musculus, 6 h, read-out: No. Mice Affected/No. Mice Tested, 6 h
[6] = Mus musculus, 24 h, read-out: No. Mice Affected/No. Mice Tested, 24 h
[7] = Mus musculus, read-out: No. Mice Affected/No. Mice Tested, Total

`CCCN1CCc2cccc3c2C1Cc1ccc(OC(=O)CC)c(OC(=O)CC)c1-3` (centres unmarked) [Ex. 1 (Base), N-propylnorapomorphine dipropionate] gave a responders at 5.2 µmol/kg [1] of 0%, a responders at 13 µmol/kg [1] of 75% and a responders at 26 µmol/kg [1] of 100%. It also gave a responders at 5.2 µmol/kg [2] of 0%, a responders at 13 µmol/kg [2] of 75% and a responders at 26 µmol/kg [2] of 100%. The responders at 5.2 µmol/kg [3] was 0%, the responders at 13 µmol/kg [3] was 75% and the responders at 26 µmol/kg [3] was 75%. The responders at 5.2 µmol/kg [4] was 0%, the responders at 13 µmol/kg [4] was 75% and the responders at 26 µmol/kg [4] was 75%. It also gave a responders at 5.2 µmol/kg [5] of 0%, a responders at 13 µmol/kg [5] of 50% and a responders at 26 µmol/kg [5] of 25%. For the same molecule, the responders at 5.2 µmol/kg [6] was 0%, the responders at 13 µmol/kg [6] was 0% and the responders at 26 µmol/kg [6] was 0%. The ED50 (Mus musculus) was 10 µmol/kg, the responders at 5.2 µmol/kg [7] was 0% and the responders at 13 µmol/kg [7] was 75%. The responders at 26 µmol/kg [7] was 100% and the “Molar Potency Ratio Claimed/Ref. Ester” value was 10.

In the case of `CCCN1CCc2cccc3c2C1Cc1ccc(OC(=O)C(C)(C)C)c(OC(=O)C(C)(C)C)c1-3` (centres unmarked) [Ex. 1C, N-Propylnorapomorphine dipivaloate], the responders at 26 µmol/kg (Mus musculus, 0.5 h, dose 0.026 m. mole/kg, 1/2 h post-drug, read-out: No. Mice Affected/No. Mice Tested, 1/2 h (converted)) is reported as 0%, the responders at 26 µmol/kg (Mus musculus, dose 0.026 m. mole/kg, 1 h post-drug, read-out: No. Mice Affected/No. Mice Tested, 1 h (converted)) is reported as 0% and the responders at 26 µmol/kg (Mus musculus, dose 0.026 m. mole/kg, 4 h post-drug, read-out: No. Mice Affected/No. Mice Tested, 4 h (converted)) is reported as 100%. It also gave a responders at 26 µmol/kg (Mus musculus, dose 0.026 m. mole/kg, 6 h post-drug, read-out: No. Mice Affected/No. Mice Tested, 6 h (converted)) of 100%, a responders at 26 µmol/kg (Mus musculus, dose 0.026 m. mole/kg, 24 h post-drug, read-out: No. Mice Affected/No. Mice Tested, 24 h) of 0% and a responders at 26 µmol/kg (Mus musculus, dose 0.026 m. mole/kg, total, read-out: No. Mice Affected/No. Mice Tested, Total (converted)) of 100%. For the same molecule, the “Molar Potency Ratio Claimed/Ref. Ester” value was at least 16.

`CN1CCc2cccc3c2C1Cc1ccc(OC(=O)c2ccc(Cl)cc2)c(OC(=O)c2ccc(Cl)cc2)c1-3` (centres unmarked) [Ref. 1F, reference compound] gave a responders at 416 µmol/kg (Mus musculus, 0.5 h, 1/2 h post-drug, read-out: No. Mice Affected/No. Mice Tested, 1/2 h (converted)) of 0%, a responders at 416 µmol/kg (Mus musculus, 1 h post-drug, read-out: No. Mice Affected/No. Mice Tested, 1 h (converted)) of 0% and a responders at 416 µmol/kg (Mus musculus, 4 h post-drug, read-out: No. Mice Affected/No. Mice Tested, 4 h (converted)) of 0%. It also gave a responders at 416 µmol/kg (Mus musculus, 6 h post-drug, read-out: No. Mice Affected/No. Mice Tested, 6 h (converted)) of 0%, a responders at 416 µmol/kg (Mus musculus, 24 h post-drug, read-out: No. Mice Affected/No. Mice Tested, 24 h) of 0% and a responders at 416 µmol/kg (Mus musculus, total, read-out: No. Mice Affected/No. Mice Tested, Total (converted)) of 0%.

Molecule `CCC(=O)Oc1ccc2c(c1OC(=O)CC)-c1cccc3c1C(C2)N(C)CC3` (centres unmarked) [Ref. 1, reference compound] has a responders at 26 µmol/kg [1] of 0%, a responders at 52 µmol/kg [1] of 25% and a responders at 104 µmol/kg [1] of 41.7%. The responders at 208 µmol/kg [1] was 100%, the responders at 26 µmol/kg [2] was 0% and the responders at 52 µmol/kg [2] was 25%. The responders at 104 µmol/kg [2] was 41.7%, the responders at 208 µmol/kg [2] was 100% and the responders at 26 µmol/kg [3] was 0%. The responders at 52 µmol/kg [3] was 0%, the responders at 104 µmol/kg [3] was 0% and the responders at 208 µmol/kg [3] was 100%. For the same molecule, the responders at 26 µmol/kg [4] was 0%, the responders at 52 µmol/kg [4] was 0% and the responders at 104 µmol/kg [4] was 0%. For the same molecule, the responders at 208 µmol/kg [4] was 50%, the responders at 26 µmol/kg [5] was 0% and the responders at 52 µmol/kg [5] was 0%. It also gave a responders at 104 µmol/kg [5] of 0%, a responders at 208 µmol/kg [5] of 0% and a responders at 26 µmol/kg [6] of 0%. It also gave a responders at 208 µmol/kg [6] of 0%, an ED50 (Mus musculus) of 98 µmol/kg and a responders at 26 µmol/kg [7] of 0%. For the same molecule, the responders at 52 µmol/kg [7] was 25%, the responders at 104 µmol/kg [7] was 41.7% and the responders at 208 µmol/kg [7] was 100%.

With `CCCN1CCc2cccc3c2C1Cc1ccc(OC(=O)CC)c(OC(=O)CC)c1-3` (centres unmarked) [Ex. 1 (HCl), N-propylnorapomorphine dipropionate] the ED50 was 0.0094 m. mole/kg, the responders at 6.5 µmol/kg [1] was 25% and the responders at 130 µmol/kg [1] was 75%. The responders at 260 µmol/kg [1] was 100%, the responders at 6.5 µmol/kg [2] was 25% and the responders at 130 µmol/kg [2] was 50%. The responders at 260 µmol/kg [2] was 100%, the responders at 6.5 µmol/kg [3] was 0% and the responders at 130 µmol/kg [3] was 0%. The responders at 260 µmol/kg [3] was 100%, the responders at 6.5 µmol/kg [4] was 0% and the responders at 130 µmol/kg [4] was 0%. The responders at 260 µmol/kg [4] was 100%, the responders at 6.5 µmol/kg [5] was 0% and the responders at 130 µmol/kg [5] was 0%. For the same molecule, the responders at 260 µmol/kg [5] was 100%, the responders at 6.5 µmol/kg [7] was 25% and the responders at 130 µmol/kg [7] was 75%. For the same molecule, the responders at 260 µmol/kg [7] was 100% and the “Molar Potency Ratio Claimed/Ref. Ester” value was 10.
